The values that follow come from patent publication US20260102507A1, “CAMPTOTHECIN DERIVATIVE FOR TREATING OR PREVENTING CANCER AND ANTIBODY-DRUG CONJUGATE THEREOF” (CHENGDU BRILLIANT PHARMACEUTICAL CO., LTD., priority 2023, published 2026).

Like-named read-outs stand apart in the source and are kept apart here.

Test in all cases: Cytotoxicity assay of camptothecin derivative toxins (Example A')
Format in all cases: cell-based

Assay [1] deals with human lung adenocarcinoma cell line NCI-H441. The note with it: read-out: IC50 (nM) NCI-H441. The method, then: (§1) The camptothecin derivatives of the Examples of the present application were serially diluted with DMSO and the corresponding cell culture medium, and were added into a white-walled 96-well plate. Tumor cells (human ovarian cancer cell line SK-OV-3; human colon cancer cell line HCT116; human lung adenocarcinoma cell line A549; human lung adenocarcinoma cell line NCI-H441; human oral epidermoid carcinoma cell line KB) in logarithmic growth phase were digested and adjusted to a density of approximately 3.33×10^4 cells/mL. The cells were plated at 90 µL/well on the white-walled 96-well plate that was pre-loaded with the samples, followed by incubation at 37° C. in a 5% CO2 incubator for 3 days. The growth inhibitory effect of the small molecule compounds on tumor cells was evaluated by the Cell Titer Turbo 2.0 Luminescent Cell Viability Assay (Damas life, RA-GL11). Relative light unit (RLU) values were read from the cell culture plates using a microplate reader. Experimental data were analyzed with GraphPad Prism 8.0 software to calculate IC50 values.

In assay [2] the test system is human lung adenocarcinoma cell line A549. Conditions: read-out: IC50 (nM) A549. As for the experimental part:
as §1

In assay [3] the test system is human ovarian cancer cell line SK-OV-3. The note with it: read-out: IC50 (nM) SK-OV-3. As for the experimental part:
as §1

For assay [4], the system named is human colon cancer cell line HCT116. The note with it: read-out: IC50 (nM) HCT116. As for the experimental part: as §1
[5] abbreviates: Homo sapiens, NCI-H441, 72 h, Example A', 3 days incubation.
The mark [6] stands for this setting: Homo sapiens, A549, 72 h, Example A', 3 days incubation.
The mark [7] stands for this setting: Homo sapiens, SK-OV-3, 72 h, Example A', 3 days incubation.
Setting [8] is: Homo sapiens, HCT-116, 72 h, Example A', 3 days incubation.

As a reminder, the IC50 is the concentration that inhibits the measured activity by half.

As to `CC[C@@]1(O)C(=O)OCc2c1cc1n(c2=O)Cc2c-1nc1cc(F)c(C)cc1c2NCCCCCO` [STI-F17, (S)-4-ethyl-8-fluoro-4-hydroxy-11-((5-hydroxypentyl)amino)-9-methyl-1,12-dihydro-14H-pyrano[3′,4′:6,7]indolizino[1,2-b]quinoline-3,14(4H)-dione], the IC50 in assay [1] (setting [5]) came out at 28.7 nM; in assay [2] (setting [6]) it was 377 nM; in assay [3] (setting [7]), 20 nM; in assay [4] (setting [8]), 17.2 nM.
Regarding `CC[C@@]1(O)C(=O)OCc2c1cc1n(c2=O)Cc2c-1nc1cc(F)c(C)cc1c2NCCO` [STI-F5, (S)-4-ethyl-8-fluoro-4-hydroxy-11-((2-hydroxyethyl)amino)-9-methyl-1,12-dihydro-14H-pyrano[3′,4′:6,7]indolizino[1,2-b]quinoline-3,14(4H)-dione], the IC50 in assay [1] (setting [5]) amounted to 32.3 nM; in assay [2] (setting [6]), 387 nM; in assay [3] (setting [7]), 16.9 nM; in assay [4] (setting [8]), 19 nM.
Regarding `CCCCCc1c2c(nc3cc(F)c(NC(=O)CO)cc13)-c1cc3c(c(=O)n1C2)COC(=O)[C@]3(O)CC` [STI-G5, (S)—N-(4-ethyl-8-fluoro-4-hydroxy-3,14-dioxo-11-pentyl-3,4,12,14-tetrahydro-1H-pyrano[3′,4′:6,7]indolizino[1,2-b]quinolin-9-yl)-2-hydroxyacetamide], the IC50 in assay [1] (setting [5]) was 2.22 nM; in assay [3] (setting [7]), 10.3 nM.
As for `CC[C@@]1(O)C(=O)OCc2c1cc1n(c2=O)Cc2c-1nc1cc(F)c(C)cc1c2N1CCC(CO)CC1` [STI-F14, (S)-4-ethyl-8-fluoro-4-hydroxy-11-(4-(hydroxymethyl)piperidin-1-yl)-9-methyl-1,12-dihydro-14H-pyrano[3′,4′:6,7]indolizino[1,2-b]quinoline-3,14(4H)-dione], the figures for the IC50 in assay [1] (setting [5]), in assay [2] (setting [6]) and in assay [4] (setting [8]) were 11.1 nM, 156 nM and 12.4 nM, respectively.
For the compound `CC[C@@]1(O)C(=O)OCc2c1cc1n(c2=O)Cc2c-1nc1cc(F)c(C)cc1c2N[C@H]1CC[C@H](CO)CC1` [STI-F15, (S)-4-ethyl-8-fluoro-4-hydroxy-11-(((1r,4S)-4-(hydroxymethyl)cyclohexyl)amino)-9-methyl-1,12-dihydro-14H-pyrano[3′,4′:6,7]indolizino[1,2-b]quinoline-3,14(4H)-dione], the IC50 in assay [1] (Example A', 3 days incubation) is 50.9 nM; in assay [2] (Example A', 3 days incubation) it was 542 nM; in assay [3] (Example A', 3 days incubation), 28.7 nM; in assay [4] (Example A', 3 days incubation), 22.6 nM.
Regarding `CC[C@@]1(O)C(=O)OCc2c1cc1n(c2=O)Cc2c-1nc1cc3c(cc1c2NCCCCO)OCO3` [STI-F18, (S)-7-ethyl-7-hydroxy-14-((4-hydroxybutyl)amino)-10,13-dihydro-11H-[1,3]dioxolo[4,5-g]pyrano[3′,4′:6,7]indolizino[1,2-b]quinoline-8,11(7H)-dione], the IC50 in assay [1] (Homo sapiens, NCI-H441, 72 h) is 42 nM; in assay [2] (Homo sapiens, A549, 72 h), 454 nM; in assay [3] (Homo sapiens, SK-OV-3, 72 h), 44.6 nM; in assay [4] (Homo sapiens, HCT-116, 72 h), 58.7 nM.
Consider `CC[C@@]1(O)C(=O)OCc2c1cc1n(c2=O)Cc2c-1nc1cc(F)c(C)cc1c2NC/C=C/CO` [STI-F8, (S,E)-4-ethyl-8-fluoro-4-hydroxy-11-((4-hydroxybut-2-en-1-yl)amino)-9-methyl-1,12-dihydro-14H-pyrano[3′,4′:6,7]indolizino[1,2-b]quinoline-3,14(4H)-dione], for which the IC50 in assay [1] (setting [5]) stood at 24.9 nM; in assay [2] (setting [6]), 278 nM; in assay [3] (setting [7]) it was 12.3 nM; in assay [4] (setting [8]) it was 11.4 nM.
